From ChEMBL document CHEMBL1153661, “Antiviral optically pure dioxolane purine nucleosides analogues” (Bioorg Med Chem Lett, 1993)

How the values were obtained:
[1] = test system: MT4; assay: Compound was tested for inhibitory activity against HIV in whole cell assay (MT-4, RF strain of HIV-1 at a concentration up to […]); IA: Found inactive; assay type: functional, cell-based, Homo sapiens
[2] = test system: MT4; assay: Compound was tested for cytotoxicity against MT-4 cells (MT-4, RF strain of HIV-1); Compound was found non cytotoxic; assay type: functional, cell-based; details: Homo sapiens
[3] = Compound was tested for inhibitory activity against HIV in human peripheral blood mononuclear (PBM, LAV strain of HIV-l) cells; assay type: functional, cell-based
[4] = test system: MT4; assay: Compound was tested for inhibitory activity against HIV in whole cell assay (MT-4, RF strain of HIV-1 at a concentration up to […]); assay type: functional, cell-based; details: Homo sapiens
[5] = test system: MT4; assay: Compound was tested for cytotoxicity against MT-4 cells (MT-4, RF strain of HIV-1); assay type: functional; details: Homo sapiens, read-out: CD50 (the source's name)
[6] = Compound was tested for cytotoxicity against human peripheral blood mononuclear (PBM, LAV strain of HIV-l) cells; assay type: functional; details: read-out: CD50 (the source's name)

With `Nc1nc(O)c2ncn([C@@H]3CO[C@H](CO)O3)c2n1` the IC50 [1] was “Not Active” and the CD50 [2] was “Non-toxic”.
`Nc1nc2c(ncn2[C@H]2CO[C@@H](CO)O2)c(=O)[nH]1` showed an IC50 [3] of 30 nM, an IC50 [4] of 10.7 µM and a CC50 [5] greater than 425 µM. The CC50 [6] was greater than 100 µM.
